According to patent publication US20250042912A1, “NOVEL NON-FLUORINATED QUINOLONE COMPOUND AND USE THEREOF” (priority 2021, published 2025):
Converted amounts (≈) assume the structure as drawn.

Legend:
[1] = test system: Propionibacterium acnes ATCC 11827; assay: Minimum inhibitory concentration (MIC) assay, Propionibacterium acnes ATCC 11827; assay type: cell-based; conditions: Cutibacterium acnes, ATCC11827; anaerobic culture 35+/-2°C, 48 hours; read with naked eyes
Experimental: (§1) On the day of the experiment, the compound in the flask was dissolved in 100% DMSO until the concentration of mother liquor was 0.4 mg/mL. If the mother liquor was not used on the same day, it was stored at −80° C. for future use. The compound mother liquor and standard antibiotics were subjected to 2-fold gradient dilution with corresponding solvents on a 96-microwell plate (V-bottom) to obtain 100× working solutions (Well 1 to Well 7) in sequence. Among them, the concentrations of the compound were 400 μg/mL, 200 μg/mL, 100 μg/mL, 50 μg/mL, 25 μg/mL, 12.5 μg/mL, 6.25 μg/mL, and 3.125 μg/mL. 100% DMSO was used as growth control (Well 8). As such, the compound motherplate was obtained. Two days before the experiment, anaerobic bacteria (Propionibacterium acnes) stored in a cryogenic tube at −80° C. were scribed on an MBA (Brucella Agar+5% (v/v) defibrillated sheep blood+[…] Hemin+1 μg/mLVitamin K1) plate. The anaerobic bacteria were placed in a 35+/−2° C. anaerobic incubator for 42-48 hours of cultivation. On the day of the experiment, the plate was taken out, clones were picked from the plate and suspended in physiological saline. Then, the turbidity of the bacterial suspension (containing 1.0-2.0×10^8 CFU/mL) was adjusted to OD600=0.2 by a turbidity meter. Then, the adjusted bacterial suspension was diluted to an appropriate concentration with the assay culture medium: about 5×10^5 CFU/mL for aerobic bacteria, and about 1×10^6 CFU/mL for anaerobic bacteria. As such, the inoculating solution was obtained. […] Therefore, the final assay concentrations of the compound were 4 μg/mL, 2 μg/mL, 1 μg/mL, 0.5 μg/mL, 0.25 μg/mL, 0.125 μg/mL, 0.06 μg/mL and 0.03 μg/mL. The total volume of each well on the assay plate was 200 μL: containing 1% DMSO, about 5×10^5 CFU/mL of aerobic bacteria and about 1×10^6 CFU/mL of anaerobic bacteria. All assay plates for aerobic bacteria were aerobically cultured at 35+/−2° C. for 16 to 20 hours, and all assay plates for anaerobic bacteria were anaerobically cultured in an anaerobic incubator at 35+/−2° C. for 48 hours. Note: for anaerobic bacteria, both the preparation of bacterial solution in step 2 and the inoculation of bacterial solution in step 3 were operated in an anaerobic workstation.

[2] = test system: Propionibacterium acnes ATCC 6919; assay: Minimum inhibitory concentration (MIC) assay, Propionibacterium acnes ATCC 6919; assay type: cell-based; conditions: Cutibacterium acnes, ATCC6919; anaerobic culture 35+/-2°C, 48 hours; read with naked eyes
Experimental: as §1

[3] = test system: Propionibacterium acnes ATCC 6919; assay: Acne model in mice: ear bacterial load; assay type: in vivo
Experimental: Experimental strain: Propionibacterium acnes ATCC 6919 (Beijing Biobw Biotechnology Co., Ltd.) Experimental animals: Balb/C mice (Zhejiang Vital River Laboratory Animal Technology Co., Ltd.) Balb/C mice were grouped and numbered, and adaptively fed for one week. On the day of modeling, Propionibacterium acnes was taken, and OD600 was measured using a microplate reader. BH1 culture medium was diluted to OD600=1 (about 5×10^8 CFU/mL), centrifuged to discard supernatant, and the remaining culture was diluted to 1×10^8 CFU/mL with PBS. Once the molding began, the mice were anesthetized with a small animal anesthesia machine, the air flow and isoflurane content of the anesthesia machine were adjusted, and the mice were placed in an anesthesia induction chamber for anesthesia induction. After there were no obvious signs of activity, the mice were taken out and their toes were clamped with tweezers or hemostatic forceps for toe pinching reaction testing, if there was no retraction pain response, the surgery could be performed. The anesthetized mice were placed on a mice plate and fixed, the air flow or isoflurane content was adjusted to maintain anesthesia (isoflurane anesthesia induction content of 3% to 4%, anesthesia maintenance content of 1% to 2%, and air flow rate of 300 mL/min to 500 mL/min). […]

MIC [1]: 0.03 µg/mL (≈ 0.0766 µM) | MIC [2]: 0.03 µg/mL (≈ 0.0766 µM)
Compound: CN(C)c1cc2c(cn1)-c1ccc3c(=O)c(C(=O)O)cn(C4CC4)c3c1COC2 [Compound 6]
Ear bacterial load Log10 CFU/Ear Mean ± SD ([3]; Balb/C mice, left ear homogenate, 48 hours after injection of Propionibacterium acnes, 15 μL applied at 4, 20, 28, 44 hours, drugs as hydrochloride): 5.53 ± 0.10 Log10 CFU/Ear | bacterial loads in the left ears of mice after treatment ([3]; compared with acne model group, p<0.001, in words): significantly decreased
